Columns and labels:
purified porcine DPP-4 = purified porcine DPP-4 (Sus scrofa, UniProt P22411); assay: DPP-4 degradation / in vitro DPP-4 half-life; details: 20 μg peptide, 5 mU purified DPP-4, up to 12 h, HPLC
Experimental: Peptide (20 μg) DPP-4 degradation profiles (5 μl purified DPP-4, 5 mU; Sigma-Aldrich, UK) were assessed as described previously.
For calculation of experimental molecular masses, peptide samples (1 µg) were mixed with α-cyano-4-hydroxycinnamic acid (1 µg) and applied to a Voyager-DE BioSpectrometry Workstation and mass-to-charge (m/z) ratio verses peak intensity recorded by MALDI-TOF mass spectrometry. DPP-4 half-life was assessed by incubating peptides (37°C in 50 mmol/L TEA-HCl; pH 7.8) with 5 mU purified porcine DPP-4 for 0, 1, 2, 4, 8 and 12 h. Degradation profiles were obtained using rp-HPLC analysis and HPLC peak area data used to calculate percentage intact peptide remaining at each time point.

BRIN-BD11 cells = assay: Intracellular Ca2+ in BRIN-BD11 cells (FLIPR Calcium 5); assay type: cell-based, rat; details: peptide 10^−6 mol/l, 5.6 mmol/l glucose, 5 min, AUC 0–300 s
Experimental: BRIN-BD11 cells were used to assess the insulin-releasing activity of test peptides, as described previously. This hybrid cell line (ECACC 10033003) was originally generated in-house by electrofusion of a primary culture of New England Deaconess Hospital (NEDH) rat pancreatic islets with RINm5F (a cell line derived from an NEDH rat insulinoma), and has been mycoplasma eradicated. For details of experimental conditions please see ESM Methods. Insulin was measured by radioimmunoassay. We assessed the impact of GIP and neurotensin receptors on (DAla^2)GIP/xenin-8-Gln-induced insulin secretion in BRIN-BD11 cells. Cells were incubated in 5.6 mmol/l glucose with (DAla^2)GIP/xenin-8-Gln (10^−6 mol/l) alone or in combination with the GIP receptor antagonist GIP(6-30)Cex-K^40[Pal] [32] (where Pal is palmitate) or the neurotensin receptor antagonist SR142948A (Sigma, Poole, UK), and insulin secretion determined as described above. In addition, to determine mechanisms, intracellular Ca^2+ was also measured in BRIN-BD11 cells following treatment with test peptides (10^−6 mol/l), using a Flexstation scanning fluorometer (FLIPR Calcium 5 assay kit; Molecular Devices, Sunnyvale, CA, USA), as described previously.

lean control mice = assay: Acute glucose-lowering and insulin-releasing effects in lean mice; assay type: in vivo, mouse; details: 25 nmol/kg i.p. with glucose 18 mmol/kg, non-fasted lean mice
Experimental: Specific information on acute feeding, glucose homeostasis and insulin-secretory studies is given in ESM Methods. To assess the impact of GIP and neurotensin receptor activation on (DAla^2)GIP/xenin-8-Gln-induced glucose-lowering and insulin-secretory actions in mice, (DAla^2)GIP/xenin-8-Gln was administered by i.p. injection (25 nmol/kg body weight) in combination with glucose (18 mmol/kg) in the absence and presence of GIP(6-30)Cex-K^40[Pal] and SR142948A (both at 25 nmol/kg), and glucose and insulin were measured as described above. In a final series of experiments, test peptides (25 nmol/kg) or saline vehicle (0.9% wt/vol. NaCl) were injected 4 h before a glucose load (18 mmol/kg) in non-fasted mice and blood glucose and plasma insulin measured as above. […]
Animals Acute animal studies were conducted in male NIH Swiss mice (12-14 weeks old, Harlan Ltd, UK) maintained on a standard rodent maintenance diet (10% fat, 30% protein and 60% carbohydrate, Trouw Nutrition, UK). Prior to commencement of longer term studies, all animals, except lean controls that continued on rodent maintenance diet, were maintained on a high-fat diet (45% fat, 35% carbohydrate and 20% protein, Special Diet Services, UK) for 12 weeks. This diet […]
individually in an air-conditioned room at 22 ± 2 °C with a 12 h light:12 h dark cycle and had free access to food and water. Animal experiments were carried out in accordance with the UK Animals (Scientific Procedures) Act 1986.
Acute in vivo effects in lean mice For food intake studies, fasted (18 h) mice were given intraperitoneal (i.p) injections of peptides at a dose of 25, 100 or 250 nmol/kg bw. Mice were then allowed free access to normal chow for 180 mins and cumulative food intake measured. For glucose homeostasis and […]

high-fat-fed mice = assay: Pancreatic insulin content and islet histology after 21 day treatment; assay type: in vivo, mouse; details: 21 days at 25 nmol/kg twice daily i.p.
Experimental: Pancreas tissue was excised, divided longitudinally and either snap frozen for extraction of insulin using acid ethanol (5 ml/g), as described previously, or processed for immunohistochemical examination. Immunohistochemistry was performed as described previously. For specific details, please see ESM Methods. […]
insulin secretory studies, blood glucose and plasma insulin were measured immediately prior to and 15, 30, 60 and 105 min after i.p. administration of glucose alone (18 mmol/kg bw) or in combination with test peptides (each at 25 nmol/kg bw) in non-fasted mice.
Immunohistochemistry Tissue sections were deparaffinised, rehydrated and probed with primary antibodies: mouse anti-insulin antibody (1:500; Abcam, ab6995), guinea-pig anti-glucagon antibody (PCA2/4, 1:400; raised in-house) or rabbit anti-Ki67 (1:200; Abcam ab16667), as appropriate. We confirmed the specificity of all antibodies in blocking experiments using the native peptide. Sections were then incubated with secondary antibody, Alexa Fluor 488 goat anti-guinea pig IgG (1:400), Alexa Fluor 594 goat anti-mouse IgG (1:400) or Alexa Fluor 594 goat anti-rabbit IgG (1:400); respectively. TUNEL staining was performed using fluorescein in situ cell detection kit (Roche Diagnostics, Germany). The slides were viewed under a FITC (488 nm) or TRITC filter (594 nm) using a fluorescent microscope (Olympus system microscope, model BX51) and photographed using a DP70 camera adapter system. Islet parameters were analysed using CellF image analysis software (Olympus Soft Imaging Solutions, GmbH).

purified porcine DPP-4, sequence (P22411 whole entry): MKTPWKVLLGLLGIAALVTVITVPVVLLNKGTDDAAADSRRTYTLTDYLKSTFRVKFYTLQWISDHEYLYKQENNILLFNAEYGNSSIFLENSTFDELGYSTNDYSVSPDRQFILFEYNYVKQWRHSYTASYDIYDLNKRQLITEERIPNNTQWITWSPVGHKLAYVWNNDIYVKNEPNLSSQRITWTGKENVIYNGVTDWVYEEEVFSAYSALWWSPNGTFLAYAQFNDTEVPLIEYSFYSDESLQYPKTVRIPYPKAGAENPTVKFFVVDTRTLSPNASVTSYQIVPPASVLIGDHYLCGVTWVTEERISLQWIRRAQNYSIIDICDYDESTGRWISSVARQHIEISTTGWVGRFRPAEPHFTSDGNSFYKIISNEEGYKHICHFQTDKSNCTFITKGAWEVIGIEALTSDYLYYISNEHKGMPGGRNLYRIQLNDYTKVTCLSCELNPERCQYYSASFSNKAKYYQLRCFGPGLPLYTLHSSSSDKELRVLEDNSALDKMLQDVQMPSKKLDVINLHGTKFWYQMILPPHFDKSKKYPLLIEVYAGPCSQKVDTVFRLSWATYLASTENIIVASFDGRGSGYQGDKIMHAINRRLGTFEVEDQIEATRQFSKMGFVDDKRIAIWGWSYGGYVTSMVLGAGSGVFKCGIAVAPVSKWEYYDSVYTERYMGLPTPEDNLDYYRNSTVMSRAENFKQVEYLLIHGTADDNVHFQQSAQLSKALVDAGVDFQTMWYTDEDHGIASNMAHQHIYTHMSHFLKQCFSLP

In the case of `CC[C@H](C)[C@H](NC(=O)[C@H](CO)NC(=O)[C@H](Cc1ccc(O)cc1)NC(=O)[C@H](CC(=O)O)NC(=O)[C@H](CO)NC(=O)[C@@H](NC(=O)[C@H](Cc1ccccc1)NC(=O)[C@@H](NC(=O)CNC(=O)[C@H](CCC(=O)O)NC(=O)[C@@H](C)NC(=O)[C@@H](N)Cc1ccc(O)cc1)[C@@H](C)O)[C@@H](C)CC)C(=O)N[C@@H](C)C(=O)N[C@@H](CCSC)C(=O)N[C@@H](CC(=O)O)C(=O)N[C@@H](CCCCN)C(=O)N[C@H](C(=O)N[C@@H](Cc1c[nH]cn1)C(=O)N[C@@H](CCC(N)=O)C(=O)N[C@@H](CCC(N)=O)C(=O)N[C@@H](CC(=O)O)C(=O)N[C@@H](Cc1ccccc1)C(=O)N[C@H](C(=O)N[C@@H](CC(N)=O)C(=O)N[C@@H](Cc1c[nH]c2ccccc12)C(=O)N[C@@H](CC(C)C)C(=O)N[C@@H](CC(C)C)C(=O)N[C@@H](C)C(=O)N[C@@H](CCC(N)=O)C(=O)N[C@@H](CCCCN)C(=O)NCC(=O)N[C@@H](CCCCN)C(=O)N[C@@H](CCCCN)C(=O)N[C@@H](CC(N)=O)C(=O)N[C@@H](CC(=O)O)C(=O)N[C@@H](Cc1c[nH]c2ccccc12)C(=O)N[C@@H](CCCCN)C(=O)N[C@@H](Cc1c[nH]cn1)C(=O)N[C@@H](CC(N)=O)C(=O)N[C@H](C(=O)N[C@H](C(=O)N[C@@H](CCC(N)=O)C(=O)O)[C@@H](C)O)[C@@H](C)CC)C(C)C)[C@@H](C)CC` [(DAla^2)GIP], the “Stability when incubated in the presence of DPP-4” value (purified porcine DPP-4) is reported as “remained fully intact”, the “Effect on intracellular Ca^2+ concentrations” value (BRIN-BD11 cells) is reported as “Neither, (DAla^2)GIP, xenin-8-Gln nor (DAla^2)GIP/xenin-8-Gln had any effect” and the Blood glucose (lean control mice; 15 min post injection) is reported as “significant (p < 0.05) reduction in blood glucose levels”. For the same compound, the Blood glucose (lean control mice; 30 min post injection, vs glucose alone) was “significantly (p < 0.05) lowered blood glucose values”, the “Overall AUC blood glucose” value (lean control mice; vs glucose alone) was “significantly (p < 0.05) decreased overall AUC blood glucose values” and the Beta cell area (high-fat-fed mice) was “no significant effect on overall pancreatic islet area or beta cell area”. For the same compound, the Pancreatic islet area (high-fat-fed mice) was “no significant effect on overall pancreatic islet area or beta cell area”, the “Number of islets per mm^2” value (high-fat-fed mice; vs all other groups) was “significantly (p < 0.05 to p < 0.01) augmented” and the Alpha cell area (high-fat-fed mice; vs high-fat-fed controls) was “decreased (p < 0.001) alpha cell area”. The “Frequency of beta cell apoptosis (TUNEL)” value (high-fat-fed mice; vs high-fat-fed controls) was “significantly (p < 0.01) decreased”.
